What was measured:
[1] = Body weight of tumor-bearing nude mice (Experiment Example 1); assay type: in vivo, BALB/C nude mice; settings: 100 mg/kg, ip × 3 (d 1, 5, 9)
Description: (§1) The treatment started from the second day after inoculation. […] The weights of tumors were compared among the groups. The result was judged based on the formula: […]

[2] = test system: Human prostate cancer (PC-3M); experiment: Inhibition of NLKJ softgels on the growth of human prostate cancer in an animal model (Experiment Example 1); assay type: in vivo; settings: 100 mg/kg, ip × 3 (d 1, 5, 9); 21th day after inoculation
Description: Inhibition of NLKJ Softgels on the Growth of Human Prostate Cancer in an Animal Model
NLKJ softgels (NLKJ for injection), Batch No. 20010412;
Kanglaite Injection (Product of Zhejiang Kanglaite Pharmaceutical Co. LTD, containing NLKJ 10 g/100 ml), Batch No. 0011281-1.
Grafting Tumor: Human prostate cancer (PC-3M), subcultured by Pharmacological Department, Shanghai Institute of Pharmaceutical Industry.
1) Control Group (Normal saline);
2) NLKJ softgel (5 ml/kg, p.o.×10 d);
3) NLKJ softgel (10 ml/kg, p.o.×10 d);
4) Kanglaite Injection (25 ml/kg, i.v.×10 d);
5) Cyclophamide (CTX) (100 mg/kg, ip.×3 (d1, d5, d9)).
as §1
IR: Inhibition Rate of Tumor; Xcon: Average weight of tumors of the control group; Xtreat: Average weight of tumors of the treatment group.

[3] = test system: Human prostate cancer (PC-3M); experiment: Inhibition of NLKJ softgels in combination with Lupron on the growth of human prostate cancer in animal models (Experiment Example 2); assay type: in vivo; settings: sc × 1, 21th day after inoculation
Description: Inhibition of NLKJ Softgels in Combination with Lupron on the Growth of Human Prostate Cancer in Animal Models […] for injection), Batch No. 011209; Lupron (Takeda Chemical Industries, Ltd., Osaka, Japan 541), Batch No. 47978 AP. […] Grafting Tumor: Human prostate cancer (PC-3M), subcultured by Pharmacological Department, Shanghai Institute of Pharmaceutical Industry. […] The weights of tumors were compared among the groups.

| Compound | Body weight (g) Beg ([1]; beginning) | Body weight (g) End ([1]; end) | Inhibition Rate(%) [2] | Tumor Weight(g) (x ± SD) [2] | Inhibition Rate(%) ([3]; 0.75 mg/kg) | Tumor Weight(g) (x ± SD) ([3]; 0.75 mg/kg) | Inhibition Rate(%) ([3]; 1.50 mg/kg) | Tumor Weight(g) (x ± SD) ([3]; 1.50 mg/kg) |
| --- | --- | --- | --- | --- | --- | --- | --- | --- |
| O=P1(N(CCCl)CCCl)NCCCO1 (centres unmarked) [CTX, Cyclophamide] | 17.0 g | 17.8 g | 92.47% | 0.12 ± 0.04 g |  |  |  |  |
| CCNC(=O)[C@@H]1CCCN1C(=O)[C@H](CCCNC(=N)N)NC(=O)[C@H](CC(C)C)NC(=O)[C@@H](CC(C)C)NC(=O)[C@H](Cc1ccc(O)cc1)NC(=O)[C@H](CO)NC(=O)[C@H](Cc1c[nH]c2ccccc12)NC(=O)[C@H](Cc1c[nH]cn1)NC(=O)[C@@H]1CCC(=O)N1 [Lupron, leuprolide acetate] |  |  |  |  | 37.08% | 0.93 ± 0.23 g | 48.31% | 0.77 ± 0.14 g |

Source: patent US9492493B2, “Softgel of NLKJ for treating prostate diseases” (priority 2003, dated 2016)
